Measured values: publication PMC8495692 (ACS Omega, 2021)
Marks after values point to notes of the source that are not given here.

Tests used:
human IRAK1 = human IRAK1 (Homo sapiens, UniProt P51617); test: IRAK1 kinase assay; type: biochemical; conditions: for inhibition at 10 µM: read-out: % of kinase inhibition (mean), IRAK1, 10 μM compound
human IRAK4 = test: IRAK4 kinase assay; type: biochemical; conditions: 10 μM compound; ATP 10 μM
IRAK4 = conditions: read-out: IC50 against IRAK4; cited from earlier work
IRAK1 = conditions: read-out: IC50 against IRAK1; cited from earlier work
[1] = test system: LPS-stimulated PMA-induced human THP-1 macrophages; test: Cytokine production, CBA array beads with flow cytometry; type: cell-based; conditions: 1 μM, 24 h, compared to control DMSO
[2] = test system: cells overexpressing IRAK1; test: MTT cytotoxicity on cells overexpressing IRAK1; type: cell-based; conditions: Homo sapiens, read-out: IC50, toxicity on cells overexpressing IRAK1

human IRAK1, sequence (P51617 whole entry): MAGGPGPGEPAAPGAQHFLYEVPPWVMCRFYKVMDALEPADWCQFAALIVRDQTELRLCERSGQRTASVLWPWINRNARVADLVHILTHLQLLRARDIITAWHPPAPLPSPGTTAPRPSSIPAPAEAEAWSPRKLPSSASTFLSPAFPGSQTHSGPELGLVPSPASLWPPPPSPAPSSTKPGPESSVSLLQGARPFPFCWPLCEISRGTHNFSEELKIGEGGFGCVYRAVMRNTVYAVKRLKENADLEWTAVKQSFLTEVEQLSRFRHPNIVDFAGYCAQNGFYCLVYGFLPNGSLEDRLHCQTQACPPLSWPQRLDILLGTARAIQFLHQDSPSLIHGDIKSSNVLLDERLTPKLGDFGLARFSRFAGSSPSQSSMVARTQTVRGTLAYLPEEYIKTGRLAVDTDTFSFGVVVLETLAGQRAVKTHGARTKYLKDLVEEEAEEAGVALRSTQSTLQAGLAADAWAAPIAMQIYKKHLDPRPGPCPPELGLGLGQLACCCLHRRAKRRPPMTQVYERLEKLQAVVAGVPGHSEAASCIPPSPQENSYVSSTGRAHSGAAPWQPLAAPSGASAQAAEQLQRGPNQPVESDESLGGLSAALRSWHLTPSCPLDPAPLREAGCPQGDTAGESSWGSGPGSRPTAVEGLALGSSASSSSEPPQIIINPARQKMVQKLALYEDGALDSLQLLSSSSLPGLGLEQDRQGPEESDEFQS

Row | inhibition at 10 µM (human IRAK1; ATP 10 μM) [%] | % of kinase inhibition (mean), IRAK4 (human IRAK4) [%] | IC50 (human IRAK1) [nM] | Structure (SMILES) | other results
1 | – | 0 | 4530 | CC(C)=CCC(O)C1=CC(=O)c2c(O)ccc(O)c2C1=O (stereo not drawn) [shikonin, 5,8-dihydroxy-2-(1-hydroxy-4-methyl-3-pentenyl)-1,4-naphthoquinone] | –
2 | 8 | 3 | – | CC(C)=CCC1=C(O)C(=O)c2ccccc2C1=O [lapachol, 2-hydroxy-3-(3-methyl-2-butenyl)-1,4-naphthoquinone] | –
3 | > 20 | 0 | 45100 | CC1=CC(=O)c2ccccc2C1=O [menadione (Vitamin K3), menadione, reference compound] | % of kinase inhibition (mean), IRAK1 (human IRAK1; 10 μM compound, ATP 10 μM): 28 ^a %
4 | 14 | 9 | – | CC1=C(C/C=C(\C)CCC[C@H](C)CCC[C@H](C)CCCC(C)C)C(=O)c2ccccc2C1=O [phylloquinone (Vitamin K1), phylloquinone, reference compound] | –

Continued, compound first:

Row | Structure (SMILES) | inhibition at 10 µM (human IRAK1; ATP 10 μM) [%] | % of kinase inhibition (mean), IRAK4 (human IRAK4) [%] | IC50 (human IRAK1) [nM] | other results
5 | O=C1C=CC(=O)c2c(O)cccc21 [juglone, 5-hydroxy-1,4-naphthoquinone] | 0 | 0 | – | –
6 | Oc1ccc(O)cc1 [hydroquinone] | 15 | 4 | – | –
7 | CC1=CC(=O)C(C(C)C)=CC1=O [thymoquinone, 2-isopropyl-5-methyl-1,4-benzoquinone] | 5 | 0 | – | –
8 | C1=C/COCc2cc(ccc2OCCN2CCCC2)Nc2nccc(n2)-c2cccc(c2)COC/1 [pacritinib] | – | – | – | IC50 (IRAK4): 177 nM; IC50 (IRAK1): 6 nM
9 | C=CC(=O)Nc1cccc(C(=O)Nc2ccc(NC(=O)c3cccc(-c4ccn[nH]4)n3)cc2)c1 [JH-X-119-01] | – | – | – | IC50 (IRAK4): > 10000 nM
10 | O=C1C=CC(=O)c2ccccc21 [1,4-naphthoquinone] | – | 10 | 914 | IL-8, IL-1β, and IL-10 levels in supernatant ([1]; p-value < 0.01): most downregulated; levels of most of measured cytokines (IL-1β, TNF-α, IL-10, IL-6, IL-8, IL-12β) in supernatant ([1]; p-value < 0.05): significant decrease; IC50 [2]: < 10000 nM
11 | O=C1C=CC(=O)C=C1 [1,4-benzoquinone] | 20 | 0 | – | –
12 | Cc1cc(O)c2c(c1)C(=O)c1cc(O)cc(O)c1C2=O [emodin, 1,3,8-trihydroxy-6-methylanthraquinone] | – | 9 | 1430 | –
13 | CC1=CC(=O)c2c(O)cccc2C1=O [plumbagin, 5-hydroxy-2-methyl-1,4-naphthoquinone] | – | 0 | 6330 | –
